Tests used:
[1] = test system: pulmonary arterial rings; test: Relaxation of phenylephrine pre-constricted pulmonary arterial rings (organ bath); design: species or system Wistar rats
Procedure: (§1) Intrapulmonary arteries of the first order (IPA1) of Wistar rats (male, 300 g) were divided into short tubular segments with an external diameter of ≈1.5-2 mm and used for isometric contraction measurement.
(§2) Arterial rings were mounted in isolated organ bath systems (EMKA Technologies), containing Krebs solution (118 mM NaCl, 4.7 mM KCl, 1.2 mM MgSO4, […], 1.2 mM KH2PO4, 2.5 mM CaCl2), and 11 mM D-glucose, pH 7.4) at 37° C. and bubbled continuously with […].
(§3) Arterial rings were stretched to a basal tension of 0.8 to 1.0 g according to their diameter. Tissues were allowed to equilibrate for 1 hour in Krebs solution and washed out every 15 minutes. A high KCl solution (80 mM) was applied in order to obtain a reference contraction used to normalize subsequent contractile responses.
Relaxation was assessed by injecting ATT (10 μM) on phenylephrine [Phe] (30 nM; Sigma) pre-constricted pulmonary arterial rings when contraction reached its steady-state.
(§4) The role of endothelium on ATT relaxant effect was assessed as aforementioned with L-NAME pre-incubation or CHAPS perfusion. Endothelial function was tested on each ring by examining the relaxation induced by 100 μM carbamylcholine (Sigma) on 1 μM or 30 nM Phe-induced pre-constricted pulmonary arterial rings. Passive and active mechanical properties were assessed using transducer systems, coupled to IOX2 software (v2.10.8, EMKA technologies, Paris, France) in order to facilitate data acquisition and analysis. Data were then analyzed using two-way ANOVA with Bonferroni post-tests (Prism 5 v.5.01).

[2] = test system: IL-10 production by LPS-activated human macrophages; test: IL-10 production by LPS-activated human macrophages (multiplex detection); type: cell-based; settings: ATT 10 μM, LPS 1 μg/mL, 48 hours, multiplex assay, FIG. 1C
Procedure: (§5) CD14^+ human macrophages isolated from healthy donors were cultured with LPS (1 μg/mL) and ATT (10 μM) for 48 hours. At the end of the culture, the supernatants were collected and cytokine production was evaluated.
(§6) Production of TNF-α was measured by ELISA. Production of TNF-α and IL-10 were measured using a multiplex detection technique.

[3] = test system: pulmonary arterial rings from rats with PH; test: Chronic endothelium dysfunction by hypobaric hypoxia, in vivo minipump treatment, ex vivo 5-HT reactivity; settings: 3 weeks hypobaric hypoxia, ATT 0.7 mg/mL by abdominal minipump, no ATT in the organ bath, FIG. 4
Procedure: In order to investigate the protective effects of ATT on chronic endothelium damage, rats were housed during 3 weeks in hypobaric hypoxia chambers (50 kPa or 10% O2).
Continuous treatment was induced through a minipump placed in the abdominal cavity to deliver ATT (0.7 mg/mL) or its placebo (sulfobutylether beta-cyclodextrin) during the whole hypoxia.
After euthanasia of the animal, pulmonary arterial rings were placed in an organ bath and the reactivity of the vessel was investigated by using cumulative concentration-response curve with 5-HT (10 nM to 100 μM). This ex vivo part of the study was conducted without any addition of ATT in the organ bath, meaning that the effect was exclusively related to the chronic in vivo treatment through the minipump.

[4] = test system: pulmonary arterial rings; test: 5-HT contractile reactivity of pulmonary arterial rings with endothelium dysfunction (organ bath); design: species or system Wistar rats; settings: ATT 10 μM, 30 minutes preincubation
Procedure: as §1, §2, §3
as §4, with “At the end” for “The role”, “the experiment, endothelial” for “endothelium on ATT relaxant effect was assessed as aforementioned with L-NAME pre-incubation or CHAPS perfusion. Endothelial”, “carbamylcholine, a potent vascular relaxing agent (100 μM; Sigma)” for “100 μM carbamylcholine (Sigma)”
Contractile responses were tested by constructing a cumulative concentration-response curve (CCRC) to 5-hydroxytryptamine [5-HT] (10 nM to 100 μM; Sigma). When indicated, tissues were preincubated during 30 minutes with ATT (10 μM), and then CCRC to 5-HT was performed in the presence or absence of the drug.
Evaluation of the role of endothelium on ATT effect was assessed using N^ω-nitro-L-arginine methyl ester [L-NAME] (100 μM, 30 minutes preincubation; Sigma) to inhibit nitric oxide-dependent relaxation, or 3-[(3-cholamidopropyl) dimethylammonio]-1-propanesulfonate [CHAPS] (0.3% in water, perfusion before mounting; Sigma) to physically damage the endothelium.

[5] = test system: TNF-α production by LPS-activated human macrophages; test: TNF-α production by LPS-activated human macrophages (multiplex detection); type: cell-based; settings: ATT 10 μM, LPS 1 μg/mL, 48 hours, multiplex assay, FIG. 1B
Procedure: as §5, §6

[6] = test system: Adult human primary ventricular cardiomyocytes; test: Human primary cardiomyocyte contractility assay after exposure to Kawasaki patient serum; type: cell-based; settings: 12 hours exposure to KD serum + ATT 1 μM
Procedure: Adult human primary ventricular cardiomyocytes were isolated from two healthy donors by AnaBios (San Diego, USA), using their CardioPRIME™ proprietary protocol.
These isolated cardiomyocytes were exposed for 12 hours to serum obtained from Kawasaki patients in acute crisis (between 2-6 days), supplemented or not with 1 μM of ATT. In parallel, cardiomyocytes were exposed to serum from Wegener's disease patients or from convalescent Kawasaki patients, under the same conditions.
The CardioPRIME™ protocol, run on a MultiCell platform by IonOptix, allows to measure several parameters. Upon electrical field stimulation to elicit contractions (tracked by the shape change in individual cardiomyocytes under optical bright field microscopy), the contractility transients could be analyzed for changes in contraction in the different conditions (amplitude of sarcomere shortening, peak height, maximum sarcomere departure velocity, maximum sarcomere return velocity, and decay time to 30% and 90% relaxation).

[7] = test system: TNF-α production in LPS-activated macrophages; test: TNF-α production by LPS-activated human macrophages (ELISA); type: cell-based; settings: ATT 10 μM, LPS 1 μg/mL, 48 hours, FIG. 1A
Procedure: as §5, §6

Row | Structure (SMILES) | amplitude of relaxation, ATT vs. CHAPS+ATT ([1]; ATT 10 μM on 30 nM phenylephrine pre-constricted rings, FIG. 3) | effect of pre-treatment with L-NAME or CHAPS on the relaxation mediated by the substance ([1]; ATT 10 μM on 30 nM phenylephrine pre-constricted rings, L-NAME 100 μM or CHAPS 0.3%, FIG. 3) | production of IL-10 [2] [%] | hyper-reactivity of the vessel induced by 5-HT after chronic hypoxia [3] | 5-HT concentration response curve and maximum efficacy in presence of ATT and CHAPS ([4]; CHAPS 0.3%, compared with normal endothelium function, FIG. 2A) | 5-HT concentration response curve with L-NAME ([4]; L-NAME 100 μM, FIG. 2B) | maximum effect of 5-HT with L-NAME ([4]; L-NAME 100 μM, FIG. 2B) | TNF-α level in LPS-activated human macrophages [5] [%] | loss of contractility (peak height, sarcomere shortening, maximum sarcomere departure velocity) ([6]; FIGS. 6A-C) | loss of relaxation (maximum sarcomere return velocity, decay time to 90% and 30% relaxation) ([6]; FIGS. 6D-F) | production of TNF-α vs. LPS-activated condition [7] [%] | relaxation under endothelium dysfunctions induced by L-NAME or CHAPS ([1]; carbamylcholine 100 μM, Phe pre-constricted rings, data not shown)
1 | COc1ccc(-c2cc(=S)ss2)cc1 [ATT, 5-(4-methoxyphenyl)-3H-1,2-dithiole-3-thione] | similar | failed 1 to affect | −60.3 | fully abolished | not significantly different | markedly shifted | significantly reduced | −51.2 | prevent this loss of contractility | prevent the loss of relaxation | −88 | –
2 | C[N+](C)(C)CCOC(N)=O.[Cl-] [carbamylcholine] | – | – | – | – | – | – | – | – | – | – | – | fully abolished
